The source of these data is patent US9206124B2, “Treatment of drug-resistant cancer with 2-aryl-2-(3-indolyl) acetohydroxamates” (New Mexico Technical Research Foundation, priority 2013, dated 2015).

One assay deals with U87 glioblastoma cells. Kind of assay: MTT antiproliferative assay, U87. It counts as cell-based, human. The procedure:
(§1) As part of the ongoing efforts aimed at identification of compounds active against cancer cells displaying resistance to proapoptotic agents, the selected 2-aryl-2-(3-indolyl)-acetohydroxamates were evaluated for in vitro growth inhibition against a panel of additional cancer cell lines including those resistant to various proapoptotic stimuli, such as human T98G and U87 glioblastoma and human A549 non-small-cell-lung cancer (NSCLC), as well as an apoptosis-sensitive tumor model, such as human Hs683 anaplastic oligodendroglioma, used as a reference. The data reveal that for the most part these compounds retain the single-digit antiproliferatve GI50 values in this challenging cancer cell panel.
(§2) Human cancer cell lines were obtained from the American Type Culture Collection (ATCC, Manassas, Va., USA), the European Collection of Cell Culture (ECACC, Salisbury, UK) and the Deutsche Sammlung von Mikroorganismen and Zellkulturen (DSMZ, Braunschweig, Germany). Human cervical adenocarcinoma HeLa cells were cultured in DMEM supplemented with 10% fetal bovine serum (FBS). Human mammary carcinoma MCF-7 cells were cultured in RPMI supplemented with 10% FBS. The U87 cells (ATCC HTB-14) were cultured in DMEM culture medium, while the A549 cells (DSMZ ACC107) were cultured in RPMI culture medium supplemented with 10% heat-inactivated FBS. The glioblastoma multiforme Hs683 (ATCC HTB-138) and the T98G (ATCC CRL-1690) cell lines were cultivated in DMEM supplemented with 10% FBS. The Human uterine sarcoma MES-SA and MES-SA/Dx5 cells were cultured in RPMI-1640 medium supplemented with 10% FBS with MES SA/Dx5 maintained in the presence of 500 nM Doxorubicin (Sigma). SKMEL-28 cells (ATCC HTB72) and U373 glioblastoma cells (ECACC 08061901) were cultured in RPMI culture medium supplemented with 10% heat-inactivated FBS. Cell culture media were supplemented with 4 mM glutamine (Lonza code BE17-605E), 100 μg/mL gentamicin (Lonza code 17-5182), and penicillin-streptomycin (200 units/ml and 200 μg/ml) (Lonza code 17-602E). Neurosphere culture GBM 031810 was established using known methods and maintained in Neurobasal medium (Invitrogen Carlsbad, Calif.) with B27 supplement (20 ul/ml; Invitrogen), Glutamax (10 ul/ml; Invitrogen), fibroblast growth factor-2 (20 ng/ml; Peprotech, Rocky Hill, N.J., USA), epidermal growth factor (20 ng/ml; Peprotech), heparin (32 IE/ml; Sigma Aldrich, St. Louis, Mo.), and penicillin-streptomycin (1×, Invitrogen). Growth factors and heparin were renewed twice weekly. All cell lines were cultured in T25 flasks, maintained and grown at 37° C., 95% humidity, 5% CO2.
(§3) Antiproliferative properties of the synthesized compounds were evaluated by the MTT assay. All compounds were dissolved in DMSO at a concentration of either 100 mM or 50 mM prior to cell treatment. The cells were trypsinized and seeded at 4×10^3 cells per well into 96-well plates. The cells were grown for 24 h, treated with compounds at concentrations ranging from 0.001 to 100 μM and incubated for 48 h in 200 μL media. 20 μL of MTT reagent in serum free medium (5 mg/mL) was added to each well and incubated further for 2 h. Media was removed and the resulting formazan crystals were re-solubilized in 200 μL of DMSO. A490 was measured using a Molecular Devices Thermomax plate reader. The experiments were performed in quadruplicate and repeated at least twice for each compound per cell line. Cells treated with 0.1% DMSO were used as a negative control; 1 μM phenyl arsine oxide (PAO) was used as a positive control.

Assay [1] deals with A549 non-small-cell-lung cancer cells. Kind of assay: MTT antiproliferative assay, A549. It counts as cell-based, human. The procedure:
as §1, §2, §3
(In general: Tetrazolium dyes change colour on reduction, which living cells bring about.)

Assay [2] relates to MES-SA uterine sarcoma cells. Put plainly: MTT antiproliferative assay, MES-SA. The settings on record: Homo sapiens, 48 h treatment, ± SD, read-out: GI50 in vitro, MES-SA. It is filed as cell-based. The procedure:
Compared with the intrinsic drug resistance, as described above for such cancers as glioblastoma and melanoma, a large variety of tumors can also develop resistance to anticancer drugs resulting in MDR as explained previously. To assess whether the hydroxamates can overcome this resistance mechanism, selected hydroxamates were tested against MDR cells (Table 4). The MDR uterine sarcoma cell line MES-SA/Dx5 was utilized for this experiment. This cell line was established from the parent uterine sarcoma MES-SA, grown in the presence of increasing concentrations of doxorubicin and known to be resistant to a number of P-gp substrates. […] In contrast, there was only a small variation in the sensitivities of the two cell lines towards the hydroxamates indicating their potential to overcome clinical multi-drug resistance.
as §2, §3

The subject of assay [3] is MES-SA/Dx5 MDR uterine sarcoma cells. Kind of assay: MTT antiproliferative assay, MDR MES-SA/Dx5. It is filed as cell-based, human. The settings on record: Homo sapiens, MES-SA/Dx5; 48 h treatment, MTT, ± SD; MDR line; read-out: GI50 in vitro, MES-SA/Dx5. The procedure:
Compared with the intrinsic drug resistance, as described above for such cancers as glioblastoma and melanoma, a large variety of tumors can also develop resistance to anticancer drugs resulting in MDR as explained previously. To assess whether the hydroxamates can overcome this resistance mechanism, selected hydroxamates were tested against MDR cells (Table 4). The MDR uterine sarcoma cell line MES-SA/Dx5 was utilized for this experiment. This cell line was established from the parent uterine sarcoma MES-SA, grown in the presence of increasing concentrations of doxorubicin and known to be resistant to a number of P-gp substrates.
as §2, §3
Selection of the MES-SA/Dx5 cell line was done according to W. G. Harker and B. I. Sikic, Cancer Res. 1985, p. 45, 4091. The cells were split and allowed to adhere overnight. […] The cells were maintained at this DOX concentration until their growth rate reached that of the untreated cells.

The subject of assay [4] is GBM 031810 neurosphere cells. Kind of assay: Antiproliferative effect on patient-derived GBM neurosphere culture. It counts as cell-based. The settings on record: Homo sapiens, average IC50 ± SD from three determinations, read-out: GI50 in vitro, GBM 031810 (average IC50).
From the text: Given the ability of the hydroxamates to overcome drug resistance a few select compounds were further evaluated against glioma cells grown in neurosphere conditions, which are known to promote the growth of stem-like cells from human glioma tissue. Indeed, the neurospheres show the ability of self-renewal by regrowing in culture from individual cells, and can differentiate into multiple neural lineages and recapitulate human gliomas on both histological and genetic levels more faithfully than serum cultured glioma cell lines when injected into the brains of mice. Because, neurosphere cells are generally resistant to radiation and chemotherapy, the micromolar to submicromolar activity of the hydroxamates against the glioma neurosphere cell cultures is noteworthy (Table 4). […] It is worthy of note, that the unmethylated MGMT promoter leading to such temozolomide resistance is found in about half of all GBM patients, who respond poorly to temozolomide chemotherapy. To date, no alternative treatment exists for this group of patients.
as §2, with “Growth factors and heparin were renewed twice weekly. All cell lines were cultured in T25 flasks, maintained and grown at 37° C., 95% humidity, 5% CO2.” left out

The mark [5] stands for this setting: FIG. 3, increasing concentration.

Each structure is given as a SMILES string.

Consider `O=C(NO)C(c1ccccc1)c1c(-c2ccc3ccccc3c2)[nH]c2ccccc12` (stereo not shown) [Compound 3aafa], for which the “activity against cell populations resistant to proapoptotic agents, U87” value with U87 glioblastoma cells (setting [5]) is “potent growth inhibitory properties against most of the cells”. Further, the GI50 is 9500 ± 300 nM with U87 glioblastoma cells (Homo sapiens, 48 h treatment, MTT, ± SD, read-out: GI50 in vitro, U87); 2800 ± 400 nM in assay [1] (Homo sapiens, A549, 48 h treatment, MTT, ± SD, read-out: GI50 in vitro, A549); 2000 ± 200 nM in assay [2]; 4000 ± 1100 nM in assay [3]. Besides, in assay [1] (setting [5]), the “activity against cell populations resistant to proapoptotic agents, A549” value is on record as “potent growth inhibitory properties against most of the cells”. Moreover, the IC50 in assay [4] is 800 ± 600 nM.

As a reminder, the IC50 is the concentration needed to halve the response being measured.
